Reference: ChEMBL document CHEMBL1201862, “PubChem BioAssay data set” (2004)
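Briefly, cells in 96-well plates were exposed to five compound concentrations for 48 h, and endpoints were estimated by linear interpolation. The concentration for 50% growth inhibition is given as GI50.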 Active and inactive are the calls of the source. No stated cut-off is given here; in the data, active = GI50 up to about 1.1 µM and inactive = higher.

What was measured:
Test in all cases: inhibition of tumour cell growth, NCI panel, 48 h
[1] = test system: SK-MEL-28
[2] = test system: SF-268
[3] = test system: HCC 2998
[4] = test system: A498
[5] = test system: OVCAR-8
[6] = test system: K562
[7] = test system: 786-0
[8] = test system: COLO 205
[9] = test system: HL-60
[10] = test system: NCI-H460
[11] = test system: OVCAR-3
[12] = test system: UACC-62
[13] = test system: EKVX
[14] = test system: SF-295
[15] = test system: SK-MEL-2
[16] = test system: MDA-N
[17] = test system: HCT-116
[18] = test system: KM12
[19] = test system: CAKI-1
[20] = test system: MOLT-4
[21] = test system: NCI-H23
[22] = test system: OVCAR-5
[23] = test system: HOP-92
[24] = test system: SW-620
[25] = test system: HOP-62
[26] = test system: HT-29
[27] = test system: CCRF-CEM
[28] = test system: DU-145
[29] = test system: RPMI-8226
[30] = test system: NCI-H226
[31] = test system: UO-31
[32] = test system: SK-OV-3
[33] = test system: SF-539
[34] = test system: PC-3
[35] = test system: T47D
[36] = test system: TK-10
[37] = test system: MDA-MB-435
[38] = test system: IGROV-1
[39] = test system: M14
[40] = test system: MCF7
[41] = test system: SK-MEL-5
[42] = test system: NCI/ADR-RES
[43] = test system: Malme-3M
[44] = test system: LOX IMVI
[45] = test system: NCI-H522
[46] = test system: SN12C
[47] = test system: SNB-19
[48] = test system: A549
[49] = test system: SNB-75
[50] = test system: U-251
[51] = test system: ACHN
[52] = test system: OVCAR-4
[53] = test system: SR
[54] = test system: MDA-MB-231
[55] = test system: HCT-15
[56] = test system: BT-549
[57] = test system: Hs-578T
[58] = test system: UACC-257
[59] = test system: RXF 393

`COc1ccc(C(c2ccc3c(c2)OCO3)N2C(=O)CCC2C(=O)O)cc1` (stereo not drawn) was tested, and the GI50 [1] was > 100 µM (inactive), the GI50 [2] was > 100 µM (inactive) and the GI50 [3] was > 100 µM (inactive). For the same molecule, the GI50 [4] was > 100 µM (inactive), the GI50 [5] was > 100 µM (inactive) and the GI50 [6] was > 100 µM (inactive). For the same molecule, the GI50 [7] was > 100 µM (inactive), the GI50 [8] was > 100 µM (inactive) and the GI50 [9] was > 100 µM (inactive). The GI50 [10] was > 100 µM (inactive), the GI50 [11] was > 100 µM (inactive) and the GI50 [12] was > 100 µM (inactive). The GI50 [13] was > 100 µM (inactive), the GI50 [14] was > 100 µM (inactive) and the GI50 [15] was > 100 µM (inactive). For the same molecule, the GI50 [16] was > 100 µM (inactive), the GI50 [17] was > 100 µM (inactive) and the GI50 [18] was > 100 µM (inactive). The GI50 [19] was > 100 µM (inactive), the GI50 [20] was > 100 µM (inactive) and the GI50 [21] was > 100 µM (inactive). The GI50 [22] was > 100 µM (inactive), the GI50 [23] was > 100 µM (inactive) and the GI50 [24] was > 100 µM (inactive). For the same molecule, the GI50 [25] was > 100 µM (inactive), the GI50 [26] was > 100 µM (inactive) and the GI50 [27] was > 100 µM (inactive). For the same molecule, the GI50 [28] was > 100 µM (inactive), the GI50 [29] was > 100 µM (inactive) and the GI50 [30] was > 100 µM (inactive). For the same molecule, the GI50 [31] was > 100 µM (inactive), the GI50 [32] was > 100 µM (inactive) and the GI50 [33] was > 100 µM (inactive). For the same molecule, the GI50 [34] was > 100 µM (inactive), the GI50 [35] was > 100 µM (inactive) and the GI50 [36] was > 100 µM (inactive). For the same molecule, the GI50 [37] was > 100 µM (inactive), the GI50 [38] was > 100 µM (inactive) and the GI50 [39] was > 100 µM (inactive). For the same molecule, the GI50 [40] was > 100 µM (inactive), the GI50 [41] was > 100 µM (inactive) and the GI50 [42] was > 100 µM (inactive). The GI50 [43] was > 100 µM (inactive), the GI50 [44] was > 100 µM (inactive) and the GI50 [45] was > 100 µM (inactive). The GI50 [46] was > 100 µM (inactive), the GI50 [47] was > 100 µM (inactive) and the GI50 [48] was > 100 µM (inactive). For the same molecule, the GI50 [49] was > 100 µM (inactive), the GI50 [50] was > 100 µM (inactive) and the GI50 [51] was > 100 µM (inactive). For the same molecule, the GI50 [52] was > 100 µM (inactive), the GI50 [53] was > 100 µM (inactive) and the GI50 [54] was > 100 µM (inactive). For the same molecule, the GI50 [55] was over 100 µM, the GI50 [56] was > 100 µM (inactive) and the GI50 [57] was > 10 µM (inactive). For the same molecule, the GI50 [58] was > 100 µM (inactive).

In the case of `COc1ccc(C2=C(N)c3c(OC)cccc3C2=O)cc1`, the GI50 [1] is reported as > 100 µM (inactive), the GI50 [2] is reported as 37.8 µM (inactive) and the GI50 [3] is reported as > 100 µM (inactive). The GI50 [4] was > 100 µM (inactive), the GI50 [5] was 62.2 µM (inactive) and the GI50 [6] was > 100 µM (inactive). For the same molecule, the GI50 [7] was 85.1 µM (inactive), the GI50 [8] was > 100 µM (inactive) and the GI50 [9] was > 100 µM (inactive). The GI50 [10] was > 100 µM (inactive), the GI50 [11] was > 100 µM (inactive) and the GI50 [12] was > 100 µM (inactive). For the same molecule, the GI50 [13] was > 100 µM (inactive), the GI50 [14] was 86.1 µM (inactive) and the GI50 [15] was > 100 µM (inactive). The GI50 [16] was > 100 µM (inactive), the GI50 [17] was > 100 µM (inactive) and the GI50 [18] was > 100 µM (inactive). For the same molecule, the GI50 [19] was > 100 µM (inactive), the GI50 [20] was > 100 µM (inactive) and the GI50 [21] was > 100 µM (inactive). The GI50 [22] was > 100 µM (inactive), the GI50 [23] was > 10 µM (inactive) and the GI50 [24] was > 100 µM (inactive). The GI50 [25] was 22.5 µM (inactive), the GI50 [26] was > 100 µM (inactive) and the GI50 [27] was > 100 µM (inactive). For the same molecule, the GI50 [28] was > 100 µM (inactive), the GI50 [59] was 9.66 µM (inactive) and the GI50 [29] was > 100 µM (inactive). The GI50 [30] was > 100 µM (inactive), the GI50 [31] was > 100 µM (inactive) and the GI50 [32] was > 100 µM (inactive). The GI50 [33] was 15 µM (inactive), the GI50 [34] was > 100 µM (inactive) and the GI50 [35] was > 100 µM (inactive). The GI50 [36] was > 10 µM (inactive), the GI50 [37] was > 100 µM (inactive) and the GI50 [38] was 60.3 µM (inactive). For the same molecule, the GI50 [39] was 97.5 µM (inactive), the GI50 [40] was 60.5 µM (inactive) and the GI50 [42] was > 100 µM (inactive). The GI50 [43] was > 100 µM (inactive), the GI50 [44] was 99.5 µM (inactive) and the GI50 [46] was > 100 µM (inactive). The GI50 [47] was > 100 µM (inactive), the GI50 [49] was > 100 µM (inactive) and the GI50 [50] was 64.9 µM (inactive). The GI50 [51] was > 10 µM (inactive), the GI50 [52] was > 100 µM (inactive) and the GI50 [53] was > 100 µM (inactive). For the same molecule, the GI50 [54] was 96.6 µM (inactive), the GI50 [55] was over 100 µM and the GI50 [56] was 48.6 µM (inactive). The GI50 [57] was 61.4 µM (inactive) and the GI50 [58] was > 10 µM (inactive).

For `Cc1nnc(N)nc1/C=C/c1c(O)ccc2ccccc12`, the GI50 [1] was 29.7 µM (inactive), the GI50 [2] was 28.7 µM (inactive) and the GI50 [3] was 19.1 µM (inactive). The GI50 [4] was 21.3 µM (inactive), the GI50 [5] was 35.2 µM (inactive) and the GI50 [6] was 38.5 µM (inactive). For the same molecule, the GI50 [7] was 32.4 µM (inactive), the GI50 [8] was 44.4 µM (inactive) and the GI50 [9] was 28.2 µM (inactive). The GI50 [10] was 24.5 µM (inactive), the GI50 [12] was 21.5 µM (inactive) and the GI50 [13] was 13.9 µM (inactive). For the same molecule, the GI50 [14] was 18.6 µM (inactive), the GI50 [15] was 15.2 µM (inactive) and the GI50 [16] was 28.9 µM (inactive). For the same molecule, the GI50 [17] was 30.8 µM (inactive), the GI50 [18] was 34.5 µM (inactive) and the GI50 [19] was 36.4 µM (inactive). For the same molecule, the GI50 [20] was 22.5 µM (inactive), the GI50 [21] was 24.8 µM (inactive) and the GI50 [22] was 26.5 µM (inactive). The GI50 [23] was 21.3 µM (inactive), the GI50 [24] was 31.6 µM (inactive) and the GI50 [25] was 33.9 µM (inactive). The GI50 [26] was 27 µM (inactive), the GI50 [27] was 15.5 µM (inactive) and the GI50 [28] was 52.8 µM (inactive). For the same molecule, the GI50 [59] was 15.6 µM (inactive), the GI50 [29] was 30.5 µM (inactive) and the GI50 [30] was 21.5 µM (inactive). For the same molecule, the GI50 [31] was 18.8 µM (inactive), the GI50 [32] was 27.5 µM (inactive) and the GI50 [34] was 22.8 µM (inactive). The GI50 [35] was 36.7 µM (inactive), the GI50 [36] was 54.8 µM (inactive) and the GI50 [37] was 24.7 µM (inactive). The GI50 [38] was 13.7 µM (inactive), the GI50 [39] was 19.4 µM (inactive) and the GI50 [40] was 32.8 µM (inactive). The GI50 [41] was 25.7 µM (inactive), the GI50 [42] was 30.8 µM (inactive) and the GI50 [44] was 34.3 µM (inactive). For the same molecule, the GI50 [46] was 37.5 µM (inactive), the GI50 [47] was 27 µM (inactive) and the GI50 [48] was 34 µM (inactive). For the same molecule, the GI50 [50] was 38.7 µM (inactive), the GI50 [51] was 13.1 µM (inactive) and the GI50 [52] was 20 µM (inactive). For the same molecule, the GI50 [53] was 44.4 µM (inactive), the GI50 [54] was > 100 µM (inactive) and the GI50 [55] was 17.3 µM. The GI50 [56] was 37.9 µM (inactive), the GI50 [57] was 26.2 µM (inactive) and the GI50 [58] was 32.2 µM (inactive).
